# Experiments:
# F508del CFTR [1] = target: T1, F508del CFTR (Homo sapiens, UniProt P13569, DEL508-508); assay: Ussing chamber chloride transport in F508del/F508del HBE cells; format: cell-based; settings: for chloride transport (effect in words): Compound I alone 16 to 24 h, Compound III added in the presence of Compound I or Compound I/Compound II
# T1 construct: HBE cells derived from 3 F508del homozygous donors and 5 F508del/MF donors; endogenous in cells; host or cells: primary HBE cells from F508del/F508del and F508del/MF donors
# Method: (§1) Ussing chamber studies were conducted to measure F508del CFTR-mediated chloride transport in HBE cells derived from 3 F508del homozygous donors and 5 F508del/MF donors (G542X, 3 donors; E585X, 1 donor; 3905InsT, 1 donor). As a positive control, maximally effective concentrations of N-(benzenesulfonyl)-6-[3-[2-[1-(trifluoromethyl)cyclopropyl]ethoxy]pyrazol-1-yl]-2-[(4S)-2,2,4-trimethylpyrrolidin-1-yl]pyridine-3-carboxamide (see WO 2018/064632) and N-[(6-amino-2-pyridyl)sulfonyl]-6-(3-fluoro-5-isobutoxy-phenyl)-2-[(4S)-2,2,4-trimethylpyrrolidin-1-yl]pyridine-3-carboxamide (see WO 2016/057572) in combination with Compound II/Compound III were included in each experiment.
# (§2) In these CF cell lines, CFTR-mediated chloride transport was low in the absence of CFTR modulators, which is consistent with little-to-no CFTR at the cell surface. […] However, the efficacy of Compound I/Compound III and Compound I/Compound II/Compound III was similar at their respective EC90 values.
# F508del CFTR [2] = target: T1, F508del CFTR; assay: Ussing chamber chloride transport in F508del/MF HBE cells; format: cell-based; settings: for chloride transport (effect in words): Compound I alone 16 to 24 h, Compound III added in the presence of Compound I or Compound I/Compound II
# Method: as §1, §2
# [3] = target: CFTR-mediated chloride transport (Homo sapiens, UniProt P13569); assay: Membrane potential dye assay in human intestinal epithelial enteroid cells; format: cell-based; settings: 18-24 h incubation, acute 10 μM forskolin + 300 nM Compound III
# Method: Base medium (ADF+++) consisted of Advanced DMEM/Ham's F12, 2 mM Glutamax, 10 mM HEPES, 1μ/ml penicillin/streptomycin.
# Intestinal enteroid maintenance medium (IEMM) consisted of ADF+++, 1×B27 supplement, 1×N2 supplement, 1.25 mM N-acetyl cysteine, 10 mM Nicotinamide, 50 ng/mL hEGF, 10 nM Gastrin, 1 μg/mL hR-spondin-1, 100 ng/mL hNoggin, TGF-b type 1 inhibitor A-83-01, 100 μg/mL Primocin, 10 μM P38 MAPK inhibitor SB202190.
# Bath 1 Buffer consisted of 1 mM MgCl2, 160 mM NaCl, 4.5 mM KCl, 10 mM HEPES, 10 mM Glucose, 2 mM CaCl2).
# Chloride Free Buffer consisted of 1 mM Magnesium Gluconate, 2 mM Calcium Gluconate, 4.5 mM Potassium Gluconate, 160 mM Sodium Gluconate, 10 mM HEPES, 10 mM Glucose.
# Bath1 Dye Solution consisted of Bath 1 Buffer, 0.04% Pluronic F127, 20 μM Methyl Oxonol, 30 μM CaCCinh-A01, 30 μM Chicago Sky Blue. […]
# Enteroid cells were incubated with test compound in IEMM for 18-24 h at 37° C., 95% humidity and 5% CO2. […] Chloride transport was initiated by addition of Chloride Free Dye Stimulation Solution and the fluorescence signal was read for 15 min. […] Chloride transport was then expressed as a percentage of the chloride transport following treatment with 3 μM Compound I, 3 μM Compound II, and 300 nM acute Compound III triple combination control (% Activity). […]
# [4] = Pharmacokinetics after a single oral administration in male rats; format: in vivo
# Method: (§3) Following a single oral administration of Compound I in male animals, Compound I mean tmax values were 9 h in rats, 4 h in dogs, and 3 h in monkeys.
# [5] = Pharmacokinetics after a single oral administration in male dogs; format: in vivo; settings: nominal dose 1 mg/kg
# Method: as §3
# [6] = Pharmacokinetics after a single oral administration in male monkeys; format: in vivo; settings: nominal dose 1 mg/kg, oral bioavailability
# Method: as §3
# [7] = Systemic exposure with increasing dose and repeated oral administration for 28 d in rats; format: in vivo
# Method: (§4) Following repeated oral administration of Compound I for 28 d in rats and dogs, accumulation of Compound I exposure was observed. Systemic exposure to Compound I on Day 28 was higher than on Day 1 (Day 28/Day 1 AUC024h ratio ranged from 1.63 to 2.70 in male rats, 5.01 to 8.26 in female rats, 1.73 to 2.64 in male dogs, and 1.82 to 2.23 in female dogs).
# [8] = Systemic exposure with increasing dose and repeated oral administration for 28 d in dogs; format: in vivo; settings: as the dose increased
# Method: as §4
# [9] = Safety analysis of ongoing clinical study (Cohorts A1 to A5, B, C); format: in vivo, human
# Method: A safety analysis of an ongoing clinical study was performed for 37 subjects in Cohorts A1 to A5, 33 subjects in Cohort B, and 17 subjects in Cohort C, who were exposed to at least 1 dose of study drug (Compound I or placebo) as a monotherapy and as part of a triple combination with Compound II or Compound III.
# [10] = Relative stability of polymorphic / solvate forms; format: physicochemical; settings: water activity ≤0.95 at ambient temperature
# [11] = with a fixed combination of Compound II
# [12] = with a fixed concentration of Compound III or Compound II/Compound III
# T1 sequence (P13569 with tags, fused parts or gaps DEL508-508): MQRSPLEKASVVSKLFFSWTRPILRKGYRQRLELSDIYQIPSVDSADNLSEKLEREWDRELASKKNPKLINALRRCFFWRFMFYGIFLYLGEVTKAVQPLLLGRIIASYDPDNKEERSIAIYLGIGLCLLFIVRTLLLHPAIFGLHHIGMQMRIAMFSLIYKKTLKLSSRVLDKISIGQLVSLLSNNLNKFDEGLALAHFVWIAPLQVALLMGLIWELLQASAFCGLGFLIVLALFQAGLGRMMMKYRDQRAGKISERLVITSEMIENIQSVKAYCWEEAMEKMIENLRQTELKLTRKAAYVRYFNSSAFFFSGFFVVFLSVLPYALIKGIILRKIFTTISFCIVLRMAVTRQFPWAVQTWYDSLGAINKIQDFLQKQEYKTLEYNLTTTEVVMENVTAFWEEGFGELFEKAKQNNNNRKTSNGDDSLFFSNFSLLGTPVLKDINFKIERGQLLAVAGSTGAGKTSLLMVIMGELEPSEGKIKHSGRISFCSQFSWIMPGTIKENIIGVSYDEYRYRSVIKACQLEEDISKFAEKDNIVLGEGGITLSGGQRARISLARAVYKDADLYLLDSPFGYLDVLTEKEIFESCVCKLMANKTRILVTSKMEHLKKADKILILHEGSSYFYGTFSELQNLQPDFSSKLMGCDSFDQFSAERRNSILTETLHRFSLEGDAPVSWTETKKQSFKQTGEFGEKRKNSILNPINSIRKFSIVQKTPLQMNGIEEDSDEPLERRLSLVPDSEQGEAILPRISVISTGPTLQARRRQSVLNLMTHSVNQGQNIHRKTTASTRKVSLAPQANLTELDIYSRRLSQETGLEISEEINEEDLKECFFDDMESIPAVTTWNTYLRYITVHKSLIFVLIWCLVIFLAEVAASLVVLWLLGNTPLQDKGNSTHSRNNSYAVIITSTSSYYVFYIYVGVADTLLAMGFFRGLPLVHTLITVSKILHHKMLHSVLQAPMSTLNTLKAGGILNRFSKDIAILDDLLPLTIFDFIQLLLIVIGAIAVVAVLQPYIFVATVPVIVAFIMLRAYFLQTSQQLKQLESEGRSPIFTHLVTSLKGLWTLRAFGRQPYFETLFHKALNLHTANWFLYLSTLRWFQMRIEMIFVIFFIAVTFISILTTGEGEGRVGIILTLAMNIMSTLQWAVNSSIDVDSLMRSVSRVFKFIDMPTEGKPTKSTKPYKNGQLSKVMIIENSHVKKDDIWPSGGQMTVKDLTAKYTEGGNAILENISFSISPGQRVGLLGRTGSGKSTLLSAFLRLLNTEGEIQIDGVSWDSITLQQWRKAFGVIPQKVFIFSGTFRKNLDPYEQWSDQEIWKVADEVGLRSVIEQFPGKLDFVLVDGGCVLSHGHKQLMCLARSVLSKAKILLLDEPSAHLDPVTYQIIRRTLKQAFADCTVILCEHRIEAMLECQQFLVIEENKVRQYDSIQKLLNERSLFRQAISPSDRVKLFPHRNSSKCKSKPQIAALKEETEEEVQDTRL
# Sequence of CFTR-mediated chloride transport (P13569 whole entry): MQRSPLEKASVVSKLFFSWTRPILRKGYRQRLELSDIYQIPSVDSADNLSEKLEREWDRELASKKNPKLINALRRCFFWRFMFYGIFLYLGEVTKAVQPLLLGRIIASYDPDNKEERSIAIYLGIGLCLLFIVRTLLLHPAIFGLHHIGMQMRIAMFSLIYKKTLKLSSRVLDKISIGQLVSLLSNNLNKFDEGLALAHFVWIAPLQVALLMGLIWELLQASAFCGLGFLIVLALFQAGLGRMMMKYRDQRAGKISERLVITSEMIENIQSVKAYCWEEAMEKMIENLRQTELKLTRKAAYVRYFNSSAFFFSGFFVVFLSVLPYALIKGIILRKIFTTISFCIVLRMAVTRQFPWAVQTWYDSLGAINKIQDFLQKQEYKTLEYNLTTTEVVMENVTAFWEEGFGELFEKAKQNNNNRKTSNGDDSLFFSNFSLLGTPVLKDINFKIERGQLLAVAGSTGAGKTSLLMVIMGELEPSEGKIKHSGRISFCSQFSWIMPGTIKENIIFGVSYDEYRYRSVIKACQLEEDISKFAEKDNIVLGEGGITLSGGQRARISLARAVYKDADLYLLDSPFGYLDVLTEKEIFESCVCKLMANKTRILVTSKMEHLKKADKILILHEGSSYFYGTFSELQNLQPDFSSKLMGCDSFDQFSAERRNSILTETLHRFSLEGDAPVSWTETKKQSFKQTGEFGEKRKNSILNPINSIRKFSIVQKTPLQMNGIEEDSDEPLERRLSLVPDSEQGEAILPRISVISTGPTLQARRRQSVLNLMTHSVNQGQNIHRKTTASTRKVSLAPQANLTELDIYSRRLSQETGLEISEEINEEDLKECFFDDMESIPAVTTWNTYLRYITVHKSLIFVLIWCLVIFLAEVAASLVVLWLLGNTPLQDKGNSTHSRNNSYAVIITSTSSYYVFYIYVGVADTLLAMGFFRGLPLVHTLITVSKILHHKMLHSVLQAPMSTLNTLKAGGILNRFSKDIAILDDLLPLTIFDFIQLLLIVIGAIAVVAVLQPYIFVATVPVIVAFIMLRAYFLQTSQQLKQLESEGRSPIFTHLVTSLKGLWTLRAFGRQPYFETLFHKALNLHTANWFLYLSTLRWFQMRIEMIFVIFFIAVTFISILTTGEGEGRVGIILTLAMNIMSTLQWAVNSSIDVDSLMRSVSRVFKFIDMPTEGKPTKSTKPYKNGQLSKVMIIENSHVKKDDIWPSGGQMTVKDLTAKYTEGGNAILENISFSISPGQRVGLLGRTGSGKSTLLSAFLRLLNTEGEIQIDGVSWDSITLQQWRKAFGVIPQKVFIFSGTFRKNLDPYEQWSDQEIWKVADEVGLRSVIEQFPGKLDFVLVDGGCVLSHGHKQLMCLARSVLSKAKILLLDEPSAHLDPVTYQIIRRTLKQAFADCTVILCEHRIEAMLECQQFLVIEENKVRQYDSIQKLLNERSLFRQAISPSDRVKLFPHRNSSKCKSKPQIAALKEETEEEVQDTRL
SMILES,chloride transport (effect in words) (F508del CFTR [1]),chloride transport (effect in words) (F508del CFTR [2]),EC50 [3],"Max. Activity ([3]; % of chloride transport with 3 μM Compound I, 3 μM Compound II, 300 nM acute Compound III control)",synergy analysis (F508del CFTR [1]; [11]),synergy analysis (F508del CFTR [1]; [12]),synergy analysis (F508del CFTR [2]; [11]),synergy analysis (F508del CFTR [2]; [12]),"F ([4]; nominal dose 3 mg/kg, oral bioavailability)","bioavailability ([4]; rat, in vivo, 3 mg/kg, read-out: Mean oral bioavailability (F))",tmax ([5]; mean ± SD (n = 3)),F ([5]; oral bioavailability),F [6],"Dosenormalized exposure, sex difference [7]",increase of systemic exposure with dose ([7]; as the dose increased),increase of systemic exposure with dose [8],safety and tolerability ([9]; up to 20 mg qd in triple combination with Compound II and Compound III),safety and tolerability ([9]; up to a dose of 60 mg qd in monotherapy),relative polymorphic stability [10]
"CC(C)(C)c1cc(C(C)(C)C)c(NC(=O)c2c[nH]c3ccccc3c2=O)cc1O [Compound III, N-[2,4-bis(1,1-dimethylethyl)-5-hydroxyphenyl]-1,4-dihydro-4-oxoquinoline-3-carboxamide, reference compound]",strongly potentiated chloride transport,strongly potentiated chloride transport,,,,,,,,,,,,,,,,,
"CC1(C)C[C@@H]2CCCNc3cccc(n3)S(=O)(=O)NC(=O)c3ccc(-n4ccc(OCCC5C6(CC6)C56CC6)n4)nc3N1C2 [Compound I, (14S)-8-[3-(2-{Dispiro[2.0.2.1]heptan-7-yl}ethoxy)-1H-pyrazol-1-yl]-12,12-dimethyl-2λ6-thia-3,9,11,18,23-pentaazatetracyclo[17.3.1.111,14.05,10]tetracosa-1(22),5,7,9,19(23),20-hexaene-2,2,4-trione]",modest increase in chloride transport,modest increase in chloride transport,< 1000 nM,+++ (+++ is >60%),modestly synergistic,highly synergistic,modestly synergistic,highly synergistic,76.9%,76.9%,4.00 ± 0.00 h,49.7%,12.9%,higher in female rats than male rats,more than doseproportional,more than doseproportional,generally safe and well-tolerated,generally safe and well-tolerated,
CC1(C)C[C@@H]2CCCNc3cccc(n3)S(=O)(=O)NC(=O)c3ccc(-n4ccc(OCCC5C6(CC6)C56CC6)n4)nc3N1C2 [Compound I free Form A],,,,,,,,,,,,,,,,,,,most stable polymorphic form

# From patent publication US12319693B2, “Crystalline forms of CFTR modulators” (Vertex Pharmaceuticals Incorporated, priority 2019, dated 2025)
